The values below come from US20130178534A1, “N-Nonanoylvanillylamine as an agent for reducing the appetite, as an agent for imparting a feeling of fullness and as a mood enhancer, and corresponding substance mixtures, orally consumable products and methods” (Symrise AG, priority 2012, published 2013).

Data set [1] relates to SH-SY5Y cells. Briefly: Release of serotonin by SH-SY5Y cells (Example 3). Type of data set: cell-based, Human. The settings on record: for T/C [%] release of serotonin: normalised to control. On the procedure: (§1) Human neuroblastoma cells (SH-SY5Y, ATCC number CRL-2266) are used as the cell model. Cultivation takes place at 37° C. and 5% CO2 content with a mixture consisting of equal parts of Eagle's Minimum Essential Medium (MEM) and F12 medium (in each case with 10% FBS and 1% penicillin/streptomycin). For measurement of the release of dopamine and serotonin, the cells are harvested with trypsin and, after a vitality test by trypan blue staining, are sown in a defined cell number in 35 mm cell culture dishes.
After stimulation of 1.25*10^6 human neuroblastoma cells (SH-SY5Y) for 3 minutes with 300 μl of Krebs-Ringer HEPES buffer, 0.1% ascorbic acid, pH 6.2, with or without addition of N-nonanoylvanillylamine (wherein in the case of addition of N-nonanoylvanillylamine, concentrations of 0.01 μM, 0.1 μM, 1 μM and 10 μM are established in the Krebs-Ringer HEPES buffer), the serotonin content is determined by means of an enzyme-based detection method (serotonin ELISA sensitive, […], Hamburg, Germany). The cells are lysed with a buffer containing sodium lauryl sarcosinate, and the DNA content is determined by means of a NanoQuant plate (Tecan, Ménnendorf, Switzerland) for normalisation of the serotonin release.

The conditions of data set [2]: cited from earlier work.
Data set [3] concerns SH-SY5Y cells. Kind of data set: Release of serotonin by SH-SY5Y cells with N-nonanoylvanillylamine and a TRPV1 inhibitor (Example 4). Type of data set: cell-based, Human. The method, then:
as §1
After stimulation of 1.25*10^6 human neuroblastoma cells (SH-SY5Y) for 3 minutes with 300 μl of Krebs-Ringer HEPES buffer (0.1% ascorbic acid, pH 6.2), with or without addition of N-nonanoylvanillylamine (so that a concentration of 1 μM N-nonanoylvanillylamine is established in the Krebs-Ringer HEPES buffer) in combination with different application-relevant amounts of the selective TRPV1 inhibitor trans-4-tert-butylcyclohexanol, the serotonin content is determined by means of an enzyme-based detection method (serotonin ELISA sensitive, DLD Diagnostica, Hamburg, Germany). The cells are lysed with a buffer containing sodium lauryl sarcosinate, and the DNA content is determined by means of a NanoQuant plate in a plate reader (Tecan, Ménnendorf, Switzerland) for normalisation of the serotonin release.

For data set [4], the system named is SH-SY5Y cells. Briefly: Release of dopamine by SH-SY5Y cells with N-nonanoylvanillylamine and a TRPV1 inhibitor (Example 2). Type of data set: cell-based, Human. On the procedure:
as §1
After stimulation of 1.25*10^6 human neuroblastoma cells (SH-SY5Y) for 3 minutes with 350 μl of Krebs-Ringer HEPES buffer, pH 5, with or without addition of 1 μM N-nonanolyvanillylamine (wherein in the case of addition of N-nonanoylvanillylamine, a concentration of 1 μM is established in the Krebs-Ringer HEPES buffer) in combination with different application-relevant amounts of the selective TRPV1 inhibitor trans-4-tert-butylcyclohexanol (so that concentrations of 25, 50 and 80 μM of trans-4-tert-butylcyclo-hexanol are established in the Krebs-Ringer HEPES buffer), the supernatant is acidified with 1 N HCl and the dopamine content is determined by means of an enzyme-based detection method (dopamine ELISA, DLD Diagnostica, Hamburg, Germany). The cells are lysed with a buffer containing sodium lauryl sarcosinate, and the DNA content is determined by means of a NanoQuant plate (Tecan, Ménnendorf, Switzerland) for normalisation of the dopamine release. For comparison purposes, the tests were repeated without the addition of N-nonanoylvanillylamine.

The conditions of data set [5]: Kollmannsberger 2007; cited from earlier work.
Data set [6] has as its system SH-SY5Y cells. Kind of data set: Release of dopamine by SH-SY5Y cells (Example 1). The settings on record: for T/C [%] release of dopamine: 3 minutes, normalised to control. The data set is classed as cell-based, Human. The method, then: as §1
Method for measuring the release of dopamine:
After stimulation of 1.25*10^6 human neuroblastoma cells (SH-SY5Y) for 3 minutes with 350 μl of Krebs-Ringer HEPES buffer, pH 5, with or without addition of N-nonanoylvanillylamine (wherein in the case of addition of N-nonanoylvanillylamine, concentrations of 0.1 μM, 1 μM and 10 μM are established in the Krebs-Ringer HEPES buffer), the supernatant is acidified with 1 N HCl and the dopamine content is determined by means of an enzyme-based detection method (dopamine ELISA, DLD Diagnostica, Hamburg, Germany). The cells are lysed with a buffer containing sodium lauryl sarcosinate, and the DNA content is determined by means of a NanoQuant plate (Tecan, Ménnendorf, Switzerland) for normalisation of the dopamine release. In the case of an ethanol control (EtOH control), no N-nonanoylvanillylamine is added to the Krebs-Ringer HEPES buffer, but ethanol is added to the buffer so that a 0.1% ethanolic Krebs-Ringer HEPES buffer solution is obtained. In the case of the positive control, acetylcholine is used instead of the N-nonanoylvanillylamine, a concentration of 100 μM acetylcholine being established in the Krebs-Ringer HEPES buffer.

[7] abbreviates: 25 μM alone, without N-nonanoylvanillylamine.
Setting [8] is: 50 μM alone, without N-nonanoylvanillylamine.
The mark [9] stands for this setting: 80 μM alone, without N-nonanoylvanillylamine.
Where [10] appears, read: N-nonanoylvanillylamine 1 μM + 25 μM trans-4-tert-butylcyclohexanol.
The mark [11] stands for this setting: N-nonanoylvanillylamine 1 μM + 50 μM trans-4-tert-butylcyclohexanol.
[12] abbreviates: N-nonanoylvanillylamine 1 μM + 80 μM trans-4-tert-butylcyclohexanol.
[13] abbreviates: N-nonanoylvanillylamine 1 μM alone.

On to `[Cl-].[K+]` [KCl, potassium chloride, reference compound], for which the “T/C [%] release of serotonin” value in data set [1] (50 mM (positive control)) is on record as 153.48%.

Take `COc1cc(CNC(=O)CCCC/C=C/C(C)C)ccc1O` [capsaicin, reference compound]: the rating for genotoxicity result in data set [2] (EFSA / Scientific Committee on Food opinion 2002) is recorded as “negatively rated as having genotoxic potential”.

For `CC(C)(C)[C@H]1CC[C@H](O)CC1` [trans-4-tert-butylcyclohexanol, reference compound], the “T/C [%] release of serotonin” value in data set [3] (setting [7]) stood at 91.07%; in data set [3] (setting [8]) it was 101.39%; in data set [3] (setting [9]) it was 84.129%; in data set [3] (200 μM alone, without N-nonanoylvanillylamine), 110.99%. Further, the “T/C [%] release of dopamine” value in data set [4] (setting [7]) amounted to 84.47%; in data set [4] (setting [8]), 38.19%; in data set [4] (setting [9]), 63.53%.

`CCCCCCCCC(=O)NCc1ccc(O)c(OC)c1` [N-Nonanoylvanillylamine]: the “T/C [%] release of serotonin” value in data set [1] (0.01 μM, 3 minutes) is 191.35%; in data set [1] (0.1 μM, 3 minutes) it was 226.44%; in data set [1] (1 μM, 3 minutes), 272.12%; in data set [1] (10 μM, 3 minutes), 185.65%; in data set [3] (setting [10]), 154.86%; in data set [3] (setting [11]), 128.74%. Further, the “T/C [%] release of serotonin” value in data set [3] (setting [12]) was found to be 140.81%; in data set [3] (N-nonanoylvanillylamine 1 μM + 200 μM trans-4-tert-butylcyclohexanol) it was 181.93%; in data set [3] (setting [13]), 151.75%. Further, the “amount of serotonin released by SH-SY5Y cells” value in data set [1] (0.1 μM and above, p<0.005) is listed as “increases highly significantly”. Besides, in data set [1] (concentration range 0.01 μM to 10 μM (0.003 mg/kg to 3 mg/kg)), the “stimulating the release of serotonin in neurons, maximum, compared with the respective control” value was “about 270%”. The detection threshold in data set [5] is listed as 0.107 mg/kg. In data set [5], the stimulant threshold is 0.054 mg/kg. Further, the “T/C [%] release of dopamine” value in data set [6] (0.1 μM) worked out at 697.84%; in data set [6] (1 μM), 1350.94%; in data set [6] (10 μM) it was 1774.98%; in data set [4] (setting [10]), 433.55%; in data set [4] (setting [11]) it was 456.80%; in data set [4] (setting [12]), 422.48%. Also, the “T/C [%] release of dopamine” value in data set [4] (setting [13]) was found to be 501.20%. For the same compound, the “increase in the amount of dopamine released by SH-SY5Y cells” value in data set [6] (100 nM) is given as “seven-fold increase”. Further, in data set [6] (approximately 0.03 mg/kg (0.1 μM)), the “stimulating the release of dopamine, compared with the respective control” value was “about 700%”. Moreover, the “influence of addition of TRPV1 inhibitor trans-4-tert-butylcyclohexanol on the serotonin release” value in data set [3] (1 μM N-nonanoylvanillylamine) is reported as “not significantly influenced”. Also, the EFSA safety rating entry in data set [2] (rated in FGE.86) is on record as “no safety concern”. For the same compound, in data set [4] (1 μM), the “increase in the amount of dopamine released” value was “five-fold increase”. Also, the “influence of simultaneous stimulation with TRPV1 inhibitor trans-4-tert-butylcyclohexanol on the dopamine release” value in data set [4] (1 μM N-nonanoylvanillylamine, inhibitor 25, 50 and 80 μM) was “not significantly influenced”.

`CC(=O)OCC[N+](C)(C)C` [Acetylcholine, acetylcholine, reference compound]: the “T/C [%] release of dopamine” value in data set [6] (100 μM (positive control)) is recorded as 139.84%.
